According to ChEMBL document CHEMBL3044945, “Synthesis of 1,3,5-trisubstituted pyrazoline nucleus containing compounds and screening for antimicrobial activity” (2012):
Converted amounts (≈) assume the structure as drawn.

Legend:
Type in all cases: functional
Pseudomonas fluorescens [1] = assay: Antibacterial activity against Pseudomonas fluorescens MTCC 2421 after 24 to 48 hr by tube dilution method
Pseudomonas fluorescens [2] = assay: Antibacterial activity against Pseudomonas fluorescens MTCC 2421 at 500 ug/ml after 48 hr by cup-plate method; conditions: MTCC 2421, 48 h, read-out: DIZ
Bacillus subtilis [3] = assay: Antibacterial activity against Bacillus subtilis MTCC 441 at 750 ug/ml after 48 hr by cup-plate method; conditions: MTCC 441, 48 h, read-out: DIZ
Escherichia coli [4] = assay: Antibacterial activity against Escherichia coli MTCC 1573 at 250 ug/ml after 48 hr by cup-plate method; conditions: MTCC 1573, 48 h, read-out: DIZ
Bacillus pumilus [5] = assay: Antibacterial activity against Bacillus pumilus MTCC 1456 at 250 ug/ml after 48 hr by cup-plate method; conditions: MTCC 1456, 48 h, read-out: DIZ
Pseudomonas aeruginosa [6] = assay: Antibacterial activity against Pseudomonas aeruginosa MTCC 424 at 500 ug/ml after 48 hr by cup-plate method; conditions: MTCC 424, 48 h, read-out: DIZ
Escherichia coli [7] = assay: Antibacterial activity against Escherichia coli MTCC 1573 at 1250 ug/ml after 48 hr by cup-plate method; conditions: MTCC 1573, 48 h, read-out: DIZ
Escherichia coli [8] = assay: Antibacterial activity against Escherichia coli MTCC 1573 at 1000 ug/ml after 48 hr by cup-plate method; conditions: MTCC 1573, 48 h, read-out: DIZ
Pseudomonas aeruginosa [9] = assay: Antibacterial activity against Pseudomonas aeruginosa MTCC 424 at 1250 ug/ml after 48 hr by cup-plate method; conditions: MTCC 424, 48 h, read-out: DIZ
Staphylococcus aureus [10] = assay: Antibacterial activity against Staphylococcus aureus MTCC 1430 at 750 ug/ml after 48 hr by cup-plate method; conditions: MTCC 1430, 48 h, read-out: DIZ
Pseudomonas aeruginosa [11] = assay: Antibacterial activity against Pseudomonas aeruginosa MTCC 424 after 24 to 48 hr by tube dilution method
Bacillus subtilis [12] = assay: Antibacterial activity against Bacillus subtilis MTCC 441 at 500 ug/ml after 48 hr by cup-plate method; conditions: MTCC 441, 48 h, read-out: DIZ
Pseudomonas aeruginosa [13] = assay: Antibacterial activity against Pseudomonas aeruginosa MTCC 424 at 250 ug/ml after 48 hr by cup-plate method; conditions: MTCC 424, 48 h, read-out: DIZ
Aspergillus niger [14] = assay: Antifungal activity against Aspergillus niger MTCC 2546 at 1250 ug/ml after 48 hr by cup-plate method; conditions: MTCC 2546, 48 h, read-out: DIZ
Bacillus pumilus [15] = assay: Antibacterial activity against Bacillus pumilus MTCC 1456 at 500 ug/ml after 48 hr by cup-plate method; conditions: MTCC 1456, 48 h, read-out: DIZ
Staphylococcus aureus [16] = assay: Antibacterial activity against Staphylococcus aureus MTCC 1430 at 500 ug/ml after 48 hr by cup-plate method; conditions: MTCC 1430, 48 h, read-out: DIZ
Bacillus subtilis [17] = assay: Antibacterial activity against Bacillus subtilis MTCC 441 after 24 to 48 hr by tube dilution method
Pseudomonas fluorescens [18] = assay: Antibacterial activity against Pseudomonas fluorescens MTCC 2421 at 750 ug/ml after 48 hr by cup-plate method; conditions: MTCC 2421, 48 h, read-out: DIZ
Pseudomonas aeruginosa [19] = assay: Antibacterial activity against Pseudomonas aeruginosa MTCC 424 at 1000 ug/ml after 48 hr by cup-plate method; conditions: MTCC 424, 48 h, read-out: DIZ
Pseudomonas aeruginosa [20] = assay: Antibacterial activity against Pseudomonas aeruginosa MTCC 424 at 100 ug/ml after 48 hr by cup-plate method; conditions: MTCC 424, 48 h, read-out: DIZ
Bacillus pumilus [21] = assay: Antibacterial activity against Bacillus pumilus MTCC 1456 at 100 ug/ml after 48 hr by cup-plate method; conditions: MTCC 1456, 48 h, read-out: DIZ
Bacillus pumilus [22] = assay: Antibacterial activity against Bacillus pumilus MTCC 1456 after 24 to 48 hr by tube dilution method
Bacillus subtilis [23] = assay: Antibacterial activity against Bacillus subtilis MTCC 441 at 250 ug/ml after 48 hr by cup-plate method; conditions: MTCC 441, 48 h, read-out: DIZ
Pseudomonas aeruginosa [24] = assay: Antibacterial activity against Pseudomonas aeruginosa MTCC 424 at 750 ug/ml after 48 hr by cup-plate method; conditions: MTCC 424, 48 h, read-out: DIZ
Staphylococcus aureus [25] = assay: Antibacterial activity against Staphylococcus aureus MTCC 1430 at 1000 ug/ml after 48 hr by cup-plate method; conditions: MTCC 1430, 48 h, read-out: DIZ
Bacillus subtilis [26] = assay: Antibacterial activity against Bacillus subtilis MTCC 441 at 1250 ug/ml after 48 hr by cup-plate method; conditions: MTCC 441, 48 h, read-out: DIZ
Staphylococcus aureus [27] = assay: Antibacterial activity against Staphylococcus aureus MTCC 1430 at 250 ug/ml after 48 hr by cup-plate method; conditions: MTCC 1430, 48 h, read-out: DIZ
Aspergillus niger [28] = assay: Antifungal activity against Aspergillus niger MTCC 2546 at 1000 ug/ml after 48 hr by cup-plate method; conditions: MTCC 2546, 48 h, read-out: DIZ
Bacillus subtilis [29] = assay: Antibacterial activity against Bacillus subtilis MTCC 441 at 100 ug/ml after 48 hr by cup-plate method; conditions: MTCC 441, 48 h, read-out: DIZ
Penicillium chrysogenum [30] = assay: Antifungal activity against Penicillium chrysogenum MTCC 161 at 1000 ug/ml after 48 hr by cup-plate method; conditions: MTCC 161, 48 h, read-out: DIZ
Micrococcus luteus [31] = assay: Antibacterial activity against Micrococcus luteus MTCC 1538 at 250 ug/ml after 48 hr by cup-plate method; conditions: MTCC 1538, 48 h, read-out: DIZ
Aspergillus niger [32] = assay: Antifungal activity against Aspergillus niger MTCC 2546 at 250 ug/ml after 48 hr by cup-plate method; conditions: MTCC 2546, 48 h, read-out: DIZ
Escherichia coli [33] = assay: Antibacterial activity against Escherichia coli MTCC 1573 at 750 ug/ml after 48 hr by cup-plate method; conditions: MTCC 1573, 48 h, read-out: DIZ
Escherichia coli [34] = assay: Antibacterial activity against Escherichia coli MTCC 1573 at 500 ug/ml after 48 hr by cup-plate method; conditions: MTCC 1573, 48 h, read-out: DIZ
Penicillium chrysogenum [35] = assay: Antifungal activity against Penicillium chrysogenum MTCC 161 at 1250 ug/ml after 48 hr by cup-plate method; conditions: MTCC 161, 48 h, read-out: DIZ
Aspergillus niger [36] = assay: Antifungal activity against Aspergillus niger MTCC 2546 at 500 ug/ml after 48 hr by cup-plate method; conditions: MTCC 2546, 48 h, read-out: DIZ
Micrococcus luteus [37] = assay: Antibacterial activity against Micrococcus luteus MTCC 1538 at 1250 ug/ml after 48 hr by cup-plate method; conditions: MTCC 1538, 48 h, read-out: DIZ
Bacillus subtilis [38] = assay: Antibacterial activity against Bacillus subtilis MTCC 441 at 1000 ug/ml after 48 hr by cup-plate method; conditions: MTCC 441, 48 h, read-out: DIZ
Escherichia coli [39] = assay: Antibacterial activity against Escherichia coli MTCC 1573 at 100 ug/ml after 48 hr by cup-plate method; conditions: MTCC 1573, 48 h, read-out: DIZ
Staphylococcus aureus [40] = assay: Antibacterial activity against Staphylococcus aureus MTCC 1430 after 24 to 48 hr by tube dilution method
Micrococcus luteus [41] = assay: Antibacterial activity against Micrococcus luteus MTCC 1538 after 24 to 48 hr by tube dilution method
Bacillus pumilus [42] = assay: Antibacterial activity against Bacillus pumilus MTCC 1456 at 1250 ug/ml after 48 hr by cup-plate method; conditions: MTCC 1456, 48 h, read-out: DIZ
Penicillium chrysogenum [43] = assay: Antifungal activity against Penicillium chrysogenum MTCC 161 at 500 ug/ml after 48 hr by cup-plate method; conditions: MTCC 161, 48 h, read-out: DIZ
Staphylococcus aureus [44] = assay: Antibacterial activity against Staphylococcus aureus MTCC 1430 at 1250 ug/ml after 48 hr by cup-plate method; conditions: MTCC 1430, 48 h, read-out: DIZ
Micrococcus luteus [45] = assay: Antibacterial activity against Micrococcus luteus MTCC 1538 at 750 ug/ml after 48 hr by cup-plate method; conditions: MTCC 1538, 48 h, read-out: DIZ

## NC(=S)N1N=C(c2cccc3ccccc23)CC1c1ccc([N+](=O)[O-])cc1 (stereo not given)
Pseudomonas fluorescens [1]
  MIC: 30 µg/mL (≈ 79.7 µM)
Pseudomonas fluorescens [2]
  zone of inhibition at 500 µg/mL: 18 mm
Bacillus subtilis [3]
  zone of inhibition at 750 µg/mL: 16 mm
Escherichia coli [4]
  zone of inhibition at 250 µg/mL: 9 mm
Bacillus pumilus [5]
  zone of inhibition at 250 µg/mL: 11 mm
Pseudomonas aeruginosa [6]
  zone of inhibition at 500 µg/mL: 12 mm
Escherichia coli [7]
  zone of inhibition at 1250 µg/mL: 18 mm
Escherichia coli [8]
  zone of inhibition at 1000 µg/mL: 16 mm
Pseudomonas aeruginosa [9]
  zone of inhibition at 1250 µg/mL: 22 mm
Staphylococcus aureus [10]
  zone of inhibition at 750 µg/mL: 11 mm
Pseudomonas aeruginosa [11]
  MIC: 50 µg/mL (≈ 133 µM)
Bacillus subtilis [12]
  zone of inhibition at 500 µg/mL: 12 mm
Pseudomonas aeruginosa [13]
  zone of inhibition at 250 µg/mL: 11 mm
Aspergillus niger [14]
  zone of inhibition at 1250 µg/mL: 26 mm
Bacillus pumilus [15]
  zone of inhibition at 500 µg/mL: 16 mm
Staphylococcus aureus [16]
  zone of inhibition at 500 µg/mL: 10 mm
Bacillus subtilis [17]
  MIC: 30 µg/mL (≈ 79.7 µM)
Pseudomonas fluorescens [18]
  zone of inhibition at 750 µg/mL: 22 mm
Pseudomonas aeruginosa [19]
  zone of inhibition at 1000 µg/mL: 19 mm
Pseudomonas aeruginosa [20]
  zone of inhibition at 100 µg/mL: 10 mm
Bacillus pumilus [21]
  zone of inhibition at 100 µg/mL: 10 mm
Bacillus pumilus [22]
  MIC: 30 µg/mL (≈ 79.7 µM)
Bacillus subtilis [23]
  zone of inhibition at 250 µg/mL: 11 mm
Pseudomonas aeruginosa [24]
  zone of inhibition at 750 µg/mL: 16 mm
Staphylococcus aureus [25]
  zone of inhibition at 1000 µg/mL: 12 mm
Bacillus subtilis [26]
  zone of inhibition at 1250 µg/mL: 22 mm
Staphylococcus aureus [27]
  zone of inhibition at 250 µg/mL: 9 mm
Aspergillus niger [28]
  zone of inhibition at 1000 µg/mL: 24 mm
Bacillus subtilis [29]
  zone of inhibition at 100 µg/mL: 9 mm
Penicillium chrysogenum [30]
  zone of inhibition at 1000 µg/mL: 21 mm
Micrococcus luteus [31]
  zone of inhibition at 250 µg/mL: 9 mm
Aspergillus niger [32]
  zone of inhibition at 250 µg/mL: 11 mm
Escherichia coli [33]
  zone of inhibition at 750 µg/mL: 14 mm
Escherichia coli [34]
  zone of inhibition at 500 µg/mL: 11 mm
Penicillium chrysogenum [35]
  zone of inhibition at 1250 µg/mL: 23 mm
Aspergillus niger [36]
  zone of inhibition at 500 µg/mL: 17 mm
Micrococcus luteus [37]
  zone of inhibition at 1250 µg/mL: 19 mm
Bacillus subtilis [38]
  zone of inhibition at 1000 µg/mL: 19 mm
Escherichia coli [39]
  zone of inhibition at 100 µg/mL: 8 mm
Staphylococcus aureus [40]
  MIC: 150 µg/mL (≈ 398 µM)
Micrococcus luteus [41]
  MIC: 150 µg/mL (≈ 398 µM)
Bacillus pumilus [42]
  zone of inhibition at 1250 µg/mL: 21 mm
Penicillium chrysogenum [43]
  zone of inhibition at 500 µg/mL: 16 mm
Staphylococcus aureus [44]
  zone of inhibition at 1250 µg/mL: 14 mm
Micrococcus luteus [45]
  zone of inhibition at 750 µg/mL: 14 mm
